# US5852016A, “Quinoxaline derivatives useful in therapy” (Pfizer Inc., priority 1994, dated 1998)
# Biological target: T1, glycine site of the NMDA receptor (Rattus norvegicus, UniProt P35439)
# T1 construct: displace a selective glycine site radioligand from rat brain membranes; from tissue; host or cells: rat brain membranes
# Assay: Binding affinity for the glycine site of the NMDA receptor (test (a))
# Settings: displacement of selective glycine site radioligand ([3H]-L-689,560) from rat brain membranes
# Description: (a) Binding affinity for the glycine site of the NMDA receptor
# This may be measured by testing a compound's ability to displace a selective glycine site radioligand from rat brain membranes as described in Brit J Pharm (1991), 104, 74. In a variation of this method, thoroughly washed membrane protein is incubated with [^3 H]-L-689,560 for 90 minutes using tris-acetate buffer (pH 7.4). Displacement of the radioligand, using a range of test compound concentrations, is used to derive IC50 (50% inhibitory concentration) values.
row,IC50 [nM],SMILES
1,< 50,"CS(=O)(=O)N(CCO)c1c(Cl)c(Cl)cc2[nH]c(=O)c(=O)[nH]c12 (racemic) [Example 17, (RS)-N-(f1,4-Dihydro-6,7-dichloro-2,3-dioxoquinoxaline-5-yl)-N-(2-hydroxyethyl)methanesulphonamide]"
2,< 50,"CS(=O)(=O)N(CC(=O)O)c1c(Cl)c(Cl)cc2[nH]c(=O)c(=O)[nH]c12 (racemic) [Example 70, (RS)-N-(Carboxymethyl)-N-(1,4-dihydro-6,7-dichloro-2,3-dioxoquinoxaline-5-yl)methanesulphonamide]"
3,< 50,"CCS(=O)(=O)Nc1c(Cl)c(Cl)cc2[nH]c(=O)c(=O)[nH]c12 [Example 1, N-(1,4-Dihydro-6,7-dichloro-2,3-dioxoguinoxalin-5-yl)ethanesulphonamide]"
4,< 50,CN(c1c(Cl)c(Cl)cc2[nH]c(=O)c(=O)[nH]c12)S(C)(=O)=O [Example 8]
5,< 50,CS(=O)(=O)N(CCCO)c1c(Cl)c(Cl)cc2[nH]c(=O)c(=O)[nH]c12 [Example 29]
6,< 50,CCc1c(Cl)cc2[nH]c(=O)c(=O)[nH]c2c1N(CCO)S(C)(=O)=O [Example 40]
7,< 50,Cn1c(CN(c2c(Cl)c(Cl)cc3[nH]c(=O)c(=O)[nH]c23)S(C)(=O)=O)nc2ccccc21 [Example 56]
